Measured values as given in patent publication US7691855B2, “Phenyl-[4-(3-phenyl-1h-pyrazol-4-yl)-pyrimidin-2-yl)-amine derivatives” (Novartis AG, priority 2002, dated 2010).

Row | Structure (SMILES) | melting point
1 | COc1cc(Nc2nccc(-c3c[nH]nc3-c3ccc(Cl)cc3)n2)cc(OC)c1OC [Example 67, {4-[3-(4-Chloro-phenyl)-1H-pyrazol-4-yl]-pyrimidin-2-yl}-(3,4,5-trimethoxy-phenyl)-amine] | 271 °C
2 | COc1ccc(Nc2nccc(-c3c[nH]nc3-c3ccc(Cl)cc3)n2)cc1OC [Example 68, {4-[3-(4-Chloro-phenyl)-1H-pyrazol-4yl]-pyrimidin-2-yl}-(3,4-dimethoxy-phenyl)-amine] | 261 °C
3 | COc1cccc(Nc2nccc(-c3c[nH]nc3-c3ccc(Cl)cc3)n2)c1 [Example 69, {4-[3-(4-Chloro-phenyl)-1H-pyrazol-4-yl]-pyrimidin-2-yl}-(3-methoxy-phenyl)-amine] | 261 °C
4 | COc1cc(Nc2nccc(-c3cn(CCN(C)C)nc3-c3ccc(Cl)cc3)n2)cc(OC)c1OC [Example 70, {4-[3-(4-Chloro-phenyl)-1-(2-dimethylamino-ethyl)-1H-pyrazol-4-yl]-pyrimidin-2-yl}-(3,4,5-trimethoxy-phenyl)-amine] | 150 °C
5 | COc1cc(Nc2nccc(-c3cnn(CCN(C)C)c3-c3ccc(Cl)cc3)n2)cc(OC)c1OC [Example 71, {4-[5-(4-Chloro-phenyl)-1-(2-dimethylamino-ethyl)-1H-pyrazol-4-yl]-pyrimidin-2-yl}-(3,4,5-trimethoxy-phenyl)-amine] | 153 °C
6 | COc1ccc(Nc2nccc(-c3cnn(CCN(C)C)c3-c3ccc(Cl)cc3)n2)cc1OC [Example 73, {4-[5-(4-Chloro-phenyl)-1-(2-dimethylamino-ethyl)-1H-pyrazol-4-yl]-pyrimidin-2-yl}-(3,4-dimethoxy-phenyl)-amine] | 157 °C
7 | COc1cccc(Nc2nccc(-c3cnn(CCN(C)C)c3-c3ccc(Cl)cc3)n2)c1 [Example 75, {-4-[5-(4Chloro-phenyl)-1-(2-dimethylamino-ethyl)-1H-pyrazol-4-yl]-pyrimidin-2-yl}-(3-methoxy-phenyl)-amine] | 118 °C
8 | Cc1ccc(-c2c(-c3ccnc(Nc4ccc(CN5CCN(C)CC5)cc4)n3)cnn2C2CCN(C)CC2)cc1 [Example 84, [4-(4-Methyl-piperazin-1-ylmethyl)-phenyl]-{4-[1-(1-methyl-piperidin-4-yl)-5-p-tolyl-1H-pyrazol-4-yl]-pyrimidin-2-yl}-amine] | 187 °C
9 | COc1cccc(Nc2nccc(-c3cn(CC4CCN(C)CC4)nc3-c3ccc(Cl)cc3)n2)c1 [Example 107, {4-[3-(4-Chloro-phenyl)-1-(1methyl-piperidin-4-ylmethyl)-1H-pyrazol-4-yl]-pyrimidin-2-yl}-(3-methoxy-phenyl)-amine] | 65 °C
10 | COc1cccc(Nc2nccc(-c3cnn(CC4CCN(C)CC4)c3-c3ccc(Cl)cc3)n2)c1 [Example 108, {4-[5-(4-Chloro-phenyl)-1-(1-methyl-piperidin-4-ylmethyl)-1H-pyrazol-4-yl]-pyrimidin-2-yl}-(3-methoxy-phenyl)-amine] | 180 °C
11 | CN1CCN(Cc2ccc(Nc3nccc(-c4c[nH]nc4-c4cccc(C(F)(F)F)c4)n3)cc2)CC1 [Example 110, [4-(4-Methyl-piperazin-1-ylmethyl)-phenyl]-{4-[3-(3-trifluoromethyl-phenyl)-1H-pyrazol-4yl]-pyrimidin-2-yl}-amine] | 221 °C
12 | Cc1ccc(-c2n[nH]cc2-c2ccnc(Nc3ccc(CN4CCN(CCO)CC4)cc3)n2)cc1 [Example 111, 2-(4-{4-[4-(3-p-Tolyl-1H-pyrazol-4yl)-pyrimidin-2-ylamino]-benzyl}piperazin-1-yl)-ethanol] | 233 °C
13 | COc1cc(OC)cc(-c2n[nH]cc2-c2ccnc(Nc3cccc(S(N)(=O)=O)c3)n2)c1 [Example 113, 3-{4-[3-(3,5-Dimethoxy-phenyl)-1H-pyrazol-4-yl]-pyrimidin-2-ylamino}-benzenesulfonamide] | 257 °C
14 | CCN1CCN(Cc2ccc(Nc3nccc(-c4c[nH]nc4-c4ccccc4)n3)cc2)CC1 [Example 115, [4-(4-Ethyl-piperazin-1-ylmethyl)-phenyl]-[4-(3-phenyl-1H-pyrazol-4-yl)-pyrimidin-2-yl]-amine] | 227 °C
15 | CCN1CCN(Cc2ccc(Nc3nccc(-c4cnn(C)c4-c4ccc(C)cc4)n3)cc2)CC1 [Example 118, [4-(4-Ethyl-piperazin-1-ylmethyl)-phenyl]-[4-(1-methyl-5-p-tolyl-1H-pyrazol-4-yl)-pyrimidin-2-yl]-amine] | 82 °C
16 | CC1(C)CC(NCc2ccc(Nc3nccc(-c4c[nH]nc4-c4ccccc4)n3)cc2)CC(C)(C)N1 [Example 120, [4(3-Phenyl-1H-pyrazol-4-yl)-pyrimidin-2-yl]-{4[(2,2,6,6-tetramethyl-piperidin-4-ylamino)-methyl]-phenyl}-amine] | 213 °C
17 | CCN1CCN(c2ccc(Nc3nccc(-c4c[nH]nc4-c4ccc(Cl)cc4)n3)cc2)CC1 [Example 121, {4-[3-(4-Chloro-phenyl)-1H-pyrazol-4yl]-pyrimidin-2-yl}-[4-(4-ethyl-piperazin-1-yl)-phenyl]-amine] | 268 °C
18 | Clc1ccc(-c2n[nH]cc2-c2ccnc(Nc3ccc(N4CCNCC4)cc3)n2)cc1 [Example 122, {4-[3-(4-Chloro-phenyl)-1H-pyrazol-4yl]-pyrimidin-2-yl}-(4piperazin-1-yl-phenyl)-amine] | 214 °C

More lines, now with the values ahead:

Row | melting point | Structure (SMILES)
19 | 159 °C | CN(C)CCn1ncc(-c2ccnc(Nc3ccc(CN4CCN(C)CC4)cc3)n2)c1-c1ccc(Cl)cc1 [Example 77, {4-[5-(4-Chloro-phenyl)-1-(2-dimethylamino-ethyl)-1H-pyrazol-4yl]-pyrimidin-2-yl}-[4-(4-methyl-piperazin-1-ylmethyl)-phenyl]-amine]
20 | 166 °C | CN1CCN(Cc2ccc(Nc3nccc(-c4cn(C)nc4-c4ccc(Cl)cc4)n3)cc2)CC1 [Example 78, {4-[3-(4-Chloro-phenyl)-1-methyl-1H-pyrazol-4yl]-pyrimidin-2-yl}-[4-(4-methyl-piperazin-1-ylmethyl)-phenyl]-amine]
21 | 186 °C | CN1CCN(Cc2ccc(Nc3nccc(-c4cnn(C)c4-c4ccc(Cl)cc4)n3)cc2)CC1 [Example 79, {4-[5-(4Chloro-phenyl)-1-methyl-1H-pyrazol-4-yl]-pyrimidin-2-yl}-[4-(4-methyl-piperazin-1-ylmethyl)-phenyl]-amine]
22 | 164 °C | CN1CCC(n2cc(-c3ccnc(Nc4ccc(CN5CCN(C)CC5)cc4)n3)c(-c3ccc(Cl)cc3)n2)CC1 [Example 80, {4-[3-(4-Chloro-phenyl)-1-(1-methyl-piperidin-4-yl)-1H-pyrazol-4yl]-pyrimidin-2-yl}-[4-(4-methyl-piperazin-1-yl-methyl)-phenyl]-amine]
23 | 180 °C | CN1CCC(n2ncc(-c3ccnc(Nc4ccc(CN5CCN(C)CC5)cc4)n3)c2-c2ccc(Cl)cc2)CC1 [Example 81, {4-[5-(4-Chloro-phenyl)-1-(1-methyl-piperidin-4yl)-1H-pyrazol-4yl]-pyrimidin-2-yl}-[4-(4methyl-piperazin-1-ylmethyl)-phenyl]-amine]
24 | 123 °C | Cc1ccc(-c2c(-c3ccnc(Nc4ccc(CN5CCN(C)CC5)cc4)n3)cnn2CCN(C)C)cc1 [Example 82, {4-[1-(2-Dimethylamino-ethyl)-5-p-tolyl-1H-pyrazol-4-yl]-pyrimidin-2-yl}-[4-(4 methyl-piperazin-1-ylmethyl)-phenyl]-amine]
25 | 62 °C | Cc1ccc(-c2nn(CCN(C)C)cc2-c2ccnc(Nc3ccc(CN4CCN(C)CC4)cc3)n2)cc1 [Example 83, {4-[1-(2-Dimethylamino-ethyl)-3-p-tolyl-1H-pyrazol-4-yl]-pyrimidin-2-yl}-[4-(4-methyl-piperazin-1-ylmethyl)-phenyl]-amine]
26 | 174 °C | Cc1ccc(-c2nn(C3CCN(C)CC3)cc2-c2ccnc(Nc3ccc(CN4CCN(C)CC4)cc3)n2)cc1 [Example 85, [4-(4-Methyl-piperazin-1-ylmethyl)-phenyl]-{4-[1-(1-methyl-piperidin-4-yl)-3-p-tolyl-1H-pyrazol-4-yl]-pyrimidin-2-yl}-amine]
27 | 138 °C | CN1CCC(COc2cccc(Nc3nccc(-c4cn(C)nc4-c4ccc(Cl)cc4)n3)c2)CC1 [Example 112, {4-[3-(4-Chloro-phenyl)-1-methyl-1H-pyrazol-4-yl]-pyrimidin-2-yl}-[3-(1-methyl-piperidin-4-ylmethoxy)-phenyl]-amine]
28 | 247 °C | CCN1CCN(Cc2ccc(Nc3nccc(-c4c[nH]nc4-c4ccc(Cl)cc4)n3)cc2)CC1 [Example 114, {4-[3-(4-Chloro-phenyl)-1H-pyrazol-4yl]-pyrimidin-2-yl}-[4-(4-ethyl-piperazin-1-ylmethyl)-phenyl]-amine]
29 | 88 °C | CCN1CCN(Cc2ccc(Nc3nccc(-c4cn(C)nc4-c4ccc(C)cc4)n3)cc2)CC1 [Example 117, [4-(4-Ethyl-piperazin-1-ylmethyl)-phenyl]-[4-(1-methyl-3-p-tolyl-1H-pyrazol-4-yl)-pyrimidin-2-yl]-amine]
